Reference: the NIST ThermoML archive (doi:10.1021/acs.jced.8b00662)

Assay: xn = mol fraction of the nth substance listed
Settings: 100 kPa, Liquid; for mass density: Vibrating tube method; for viscosity: Falling or rolling sphere viscometry

CC(C)C1CCCCC1 [(1-methylethyl)cyclohexane] + c1ccc2c(c1)CCCC2
Settings | mass density [kg/m3] | viscosity [mPa·s]
318.15 K, x2 = 0 | 782.59 | –
318.15 K, x2 = 0.0995 | 797.11 | –
318.15 K, x2 = 0.1995 | 812.17 | –
318.15 K, x2 = 0.299 | 827.63 | –
318.15 K, x2 = 0.4004 | 843.82 | –
318.15 K, x2 = 0.5006 | 860.23 | –
318.15 K, x2 = 0.5995 | 876.81 | –
318.15 K, x2 = 0.7015 | 894.39 | –
318.15 K, x2 = 0.7991 | 911.63 | –
318.15 K, x2 = 0.9006 | 930.21 | –
323.15 K, x2 = 0 | 778.66 | 0.738
323.15 K, x2 = 0.0995 | 793.18 | 0.761
323.15 K, x2 = 0.1995 | 808.24 | 0.795
323.15 K, x2 = 0.299 | 823.7 | 0.831
323.15 K, x2 = 0.4004 | 839.88 | 0.875
323.15 K, x2 = 0.5006 | 856.3 | 0.93
323.15 K, x2 = 0.5995 | 872.87 | 0.982
323.15 K, x2 = 0.7015 | 890.45 | 1.05
323.15 K, x2 = 0.7991 | 907.69 | 1.123
323.15 K, x2 = 0.9006 | 926.26 | 1.219
328.15 K, x2 = 0 | 774.72 | 0.698
328.15 K, x2 = 0.0995 | 789.24 | 0.72
328.15 K, x2 = 0.1995 | 804.3 | 0.751
328.15 K, x2 = 0.299 | 819.76 | 0.784
328.15 K, x2 = 0.4004 | 835.94 | 0.825
328.15 K, x2 = 0.5006 | 852.35 | 0.875
328.15 K, x2 = 0.5995 | 868.92 | 0.922
328.15 K, x2 = 0.7015 | 886.5 | 0.985
328.15 K, x2 = 0.7991 | 903.74 | 1.051
328.15 K, x2 = 0.9006 | 922.3 | 1.137
333.15 K, x2 = 0 | 770.77 | 0.661
333.15 K, x2 = 0.0995 | 785.29 | 0.681
333.15 K, x2 = 0.1995 | 800.35 | 0.711
333.15 K, x2 = 0.299 | 815.81 | 0.741
333.15 K, x2 = 0.4004 | 831.99 | 0.779
333.15 K, x2 = 0.5006 | 848.4 | 0.825
333.15 K, x2 = 0.5995 | 864.97 | 0.869
333.15 K, x2 = 0.7015 | 882.54 | 0.926
333.15 K, x2 = 0.7991 | 899.78 | 0.986
333.15 K, x2 = 0.9006 | 918.35 | 1.065
338.15 K, x2 = 0 | 766.81 | 0.628
338.15 K, x2 = 0.0995 | 781.34 | 0.647
338.15 K, x2 = 0.1995 | 796.4 | 0.674
338.15 K, x2 = 0.299 | 811.85 | 0.703
338.15 K, x2 = 0.4004 | 828.03 | 0.737
338.15 K, x2 = 0.5006 | 844.44 | 0.78
338.15 K, x2 = 0.5995 | 861.01 | 0.82
338.15 K, x2 = 0.7015 | 878.57 | 0.873
338.15 K, x2 = 0.7991 | 895.81 | 0.928
338.15 K, x2 = 0.9006 | 914.37 | 0.999
343.15 K, x2 = 0 | 762.84 | 0.598
343.15 K, x2 = 0.0995 | 777.38 | 0.616
343.15 K, x2 = 0.1995 | 792.44 | 0.641
343.15 K, x2 = 0.299 | 807.89 | 0.668
343.15 K, x2 = 0.4004 | 824.07 | 0.7
343.15 K, x2 = 0.5006 | 840.47 | 0.74
343.15 K, x2 = 0.5995 | 857.04 | 0.776
343.15 K, x2 = 0.7015 | 874.6 | 0.825
343.15 K, x2 = 0.7991 | 891.84 | 0.875
343.15 K, x2 = 0.9006 | 910.39 | 0.942
